#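 Tested at 5 concentrations; 48 h exposure; 96-well plates; endpoints linearly interpolated, else capped at highest concentration. Here, GI50 denotes the concentration required for 50% inhibition of growth.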 The source made the active and inactive calls. No stated cut-off is given here; in the data, active = GI50 up to about 1.1 µM and inactive = higher.
# Columns and labels:
# Test in all cases: NCI anticancer screen, dose series, 48 h
# ACHN = test system: ACHN
# BT-549 = test system: BT-549
# COLO 205 = test system: COLO 205
# HCT-116 = test system: HCT-116
# HL-60 = test system: HL-60
# HOP-92 = test system: HOP-92
# IGROV-1 = test system: IGROV-1
# Malme-3M = test system: Malme-3M
# OVCAR-4 = test system: OVCAR-4
# OVCAR-5 = test system: OVCAR-5
# PC-3 = test system: PC-3
# SF-268 = test system: SF-268
# SK-OV-3 = test system: SK-OV-3
# SR = test system: SR
# SW-620 = test system: SW-620
# TK-10 = test system: TK-10
# Hs-578T = test system: Hs-578T
# K562 = test system: K562
# KM12 = test system: KM12
Structure (SMILES),GI50 (ACHN),GI50 (BT-549),GI50 (COLO 205),GI50 (HCT-116),GI50 (HL-60),GI50 (HOP-92),GI50 (IGROV-1),GI50 (Malme-3M),GI50 (OVCAR-4),GI50 (OVCAR-5),GI50 (PC-3),GI50 (SF-268),GI50 (SK-OV-3),GI50 (SR),GI50 (SW-620),GI50 (TK-10),GI50 (Hs-578T),GI50 (K562),GI50 (KM12)
COCOc1ccc(C(=O)C(C)c2ccc(OCOC)cc2OCOC)c(O)c1 (centres undefined),> 100 µM (inactive),60.5 µM (inactive),> 100 µM (inactive),> 100 µM (inactive),30.9 µM (inactive),48.1 µM (inactive),> 100 µM (inactive),> 100 µM (inactive),> 100 µM (inactive),> 100 µM (inactive),48.9 µM (inactive),> 100 µM (inactive),> 100 µM (inactive),40.7 µM (inactive),> 100 µM (inactive),> 100 µM (inactive),,,
C#CCOCn1ccc(=O)[nH]c1=O,> 100 µM (inactive),,> 100 µM (inactive),> 100 µM (inactive),> 100 µM (inactive),,> 100 µM (inactive),> 100 µM (inactive),> 100 µM (inactive),> 100 µM (inactive),> 100 µM (inactive),> 100 µM (inactive),> 100 µM (inactive),> 100 µM (inactive),> 100 µM (inactive),> 100 µM (inactive),> 100 µM (inactive),> 100 µM (inactive),> 100 µM (inactive)
O=C1CSC(=O)/C1=C\NNc1nc2ccccc2o1,32.6 µM (inactive),,27 µM (inactive),17 µM (inactive),0.586 µM (active),23.3 µM (inactive),,31.5 µM (inactive),38.3 µM (inactive),60.7 µM (inactive),21.8 µM (inactive),30.5 µM (inactive),32.3 µM (inactive),24.5 µM (inactive),29.8 µM (inactive),53.3 µM (inactive),52.7 µM (inactive),,67.9 µM (inactive)
O=C(Nc1ccccc1C(=O)NC(=O)c1ccccc1NC(=O)c1ccccc1)c1ccccc1,17.9 µM (inactive),,1.46 µM (inactive),3.45 µM (inactive),,1.99 µM (inactive),1.86 µM (inactive),3.34 µM (inactive),3.41 µM (inactive),3.6 µM (inactive),,6.85 µM (inactive),,2.42 µM (inactive),4.84 µM (inactive),10.9 µM (inactive),,4.83 µM (inactive),1.58 µM (inactive)
Cc1c(O)c(OC2OC(CO)C(O)C(O)C2O)cc2c1C=C[C@@H]1[C@@]2(C)C(=O)C[C@]2(C)[C@@H]([C@@](C)(O)C(O)/C=C/C(C)(C)O)[C@H](O)C[C@@]12C (some centres undefined),> 100 µM (inactive),> 100 µM (inactive),> 100 µM (inactive),> 100 µM (inactive),> 100 µM (inactive),> 100 µM (inactive),> 100 µM (inactive),> 100 µM (inactive),> 100 µM (inactive),> 100 µM (inactive),> 100 µM (inactive),> 100 µM (inactive),> 100 µM (inactive),> 100 µM (inactive),> 100 µM (inactive),> 100 µM (inactive),,> 100 µM (inactive),> 100 µM (inactive)
C=C(C)[C@@H]1CC[C@@]2(C)[C@H]1[C@H]1CCC3[C@@]4(C)CC[C@H](O)C(C)(C)[C@@H]4CC[C@@]3(C)[C@]1(C)C[C@@H]2O (some centres undefined) [CALENDULADIOL],21.9 µM (inactive),> 100 µM (inactive),,43.5 µM (inactive),19.5 µM (inactive),92.3 µM (inactive),60.3 µM (inactive),33 µM (inactive),,63.2 µM (inactive),39.4 µM (inactive),87.1 µM (inactive),,28.4 µM (inactive),41.9 µM (inactive),> 100 µM (inactive),,6.61 µM (inactive),39.4 µM (inactive)
Cc1nn(C)c2nc3ccc(Cl)cc3c(-c3ccccc3)c12,> 100 µM (inactive),> 100 µM (inactive),> 100 µM (inactive),> 100 µM (inactive),> 100 µM (inactive),> 100 µM (inactive),,> 100 µM (inactive),> 100 µM (inactive),95.3 µM (inactive),> 100 µM (inactive),> 100 µM (inactive),> 100 µM (inactive),> 100 µM (inactive),> 100 µM (inactive),,,> 100 µM (inactive),> 100 µM (inactive)
Cc1cc2c(c(C)c1O)C(C)(C)CN2C(=O)C(C)(C)C,> 100 µM (inactive),,86.7 µM (inactive),84.7 µM (inactive),77.4 µM (inactive),20 µM (inactive),> 100 µM (inactive),,54.1 µM (inactive),> 100 µM (inactive),46.3 µM (inactive),> 100 µM (inactive),> 100 µM (inactive),,> 100 µM (inactive),> 100 µM (inactive),> 100 µM (inactive),41.5 µM (inactive),> 100 µM (inactive)
C1=C(c2ccccc2)Nc2nnnn2C1c1ccccc1 (centres undefined),23.6 µM (inactive),,48.6 µM (inactive),9.93 µM (inactive),21.9 µM (inactive),,83.4 µM (inactive),,,93.3 µM (inactive),53.2 µM (inactive),32.7 µM (inactive),58.1 µM (inactive),12.1 µM (inactive),22.1 µM (inactive),28.6 µM (inactive),37.5 µM (inactive),21.4 µM (inactive),13.5 µM (inactive)
Cc1ccc2c(c1)Nc1cc(C(F)(F)F)ccc1[PH]2=O (centres undefined),16.6 µM (inactive),,16.1 µM (inactive),42.2 µM (inactive),29.3 µM (inactive),14.2 µM (inactive),25.9 µM (inactive),31.8 µM (inactive),11.6 µM (inactive),50.2 µM (inactive),21.7 µM (inactive),34 µM (inactive),65.2 µM (inactive),37.4 µM (inactive),23.4 µM (inactive),57.9 µM (inactive),,13.1 µM (inactive),31.5 µM (inactive)
O=C1C2C3C=C4c5ccccc5N(c5ccccc5)C4([C@@H]2C(=O)N1c1ccc(F)cc1)[C@H]1C(=O)N(c2ccc(F)cc2)C(=O)[C@@H]31 (some centres undefined),> 100 µM (inactive),,> 100 µM (inactive),,> 100 µM (inactive),> 100 µM (inactive),,> 100 µM (inactive),,> 100 µM (inactive),,37.2 µM (inactive),,> 100 µM (inactive),> 100 µM (inactive),> 100 µM (inactive),,> 100 µM (inactive),> 100 µM (inactive)
NN/C(=N\S(=O)(=O)c1cc2ccccc2s1)Nc1ccc(Cl)cc1,23.1 µM (inactive),18.9 µM (inactive),17.3 µM (inactive),16.9 µM (inactive),22.4 µM (inactive),19 µM (inactive),17.3 µM (inactive),,17.5 µM (inactive),21.1 µM (inactive),22.2 µM (inactive),22.8 µM (inactive),34.9 µM (inactive),40.1 µM (inactive),23.1 µM (inactive),23 µM (inactive),,13.3 µM (inactive),19.1 µM (inactive)
